Experimental data as given in ChEMBL document CHEMBL1142083, “Reversible inhibition of mitochondrial protein synthesis during linezolid-related hyperlactatemia” (2007).

Columns and labels:
PBMC [1] = experiment: Decrease in mitochondrial Cytochrome C oxidase 2 protein expression in PBMCs from patient on a long-term schedule of the drug with hyperlactatemia relative to control; type: functional, Homo sapiens; design: scale not given: the % may be the effect or the level left
PBMC [2] = experiment: Increase in Cytochrome C oxidase 2 mitochondrial RNA transcripts in PBMCs from patient on a long-term schedule of the drug with hyperlactatemia relative to control; type: functional, Homo sapiens
PBMC [3] = experiment: Effect on mitochondrial DNA level in PBMCs from patient on a long-term schedule of the drug with hyperlactatemia relative to control; type: functional, Homo sapiens
PBMC [4] = experiment: Effect on mitochondrial mass in PBMCs from patient during hyperlactemic phase by citrate synthase method relative to control; type: functional, Homo sapiens
PBMC [5] = experiment: Effect on mitochondrial mass in PBMCs from patient during hyperlactemic phase by V-DAC method relative to control; type: functional, Homo sapiens
PBMC [6] = experiment: Decrease in mitochondrial Cytochrome C oxidase activity in PBMCs from patient on a long-term schedule of the drug with hyperlactatemia relative to control; design: scale not given: the % may be the effect or the level left

Compound: CC(=O)NC[C@H]1CN(c2ccc(N3CCOCC3)c(F)c2)C(=O)O1 [LINEZOLID]
- Activity (PBMC [1]): 16%
- Activity (PBMC [2]): 297%
- Activity (PBMC [3]): 82%
- Activity (PBMC [4]): 59%
- Activity (PBMC [5]): 60%
- Activity (PBMC [6]): 51%
